Marks after values point to notes of the source that are not given here.
Legend:
Septoria tritici = test: Test J: wheat leaf blotch, preventive spray on wheat seedlings; assay type: in vivo
Source text: A dash (-) indicates no test results.

Phytophthora infestans = test: whole plant or invertebrate; assay type: in vivo
[1] = system: Erysiphe graminis f. sp. tritici; test: Test L: wheat powdery mildew, preventive spray on wheat seedlings
[2] = system: Colletotrichum orbiculare; test: Test B: cucumber Colletotrichum anthracnose, preventive spray on cucumber seedlings
fusarium graminearium = test: Test I: wheat head scab, preventive spray on wheat seedlings
Experimental: (the causal agent of wheat head scab) and incubated in a saturated atmosphere at 20° C. for 72 h, and then moved to a growth chamber at 22° C. for 5 days, after which disease ratings were made.

Plasmopara viticola = test: Test D: grape downy mildew, spray after inoculation of grape seedlings; assay type: in vivo
Source text: Upon removal, disease ratings were made. […] A dash (-) indicates no test results.

Septoria nodorum = test: Test H: wheat glum blotch, preventive spray on wheat seedlings
Experimental: (the causal agent of wheat glum blotch) and incubated in a saturated atmosphere at 20° C. for 48 h, and then moved to a growth chamber at 22° C. for 5 days, after which disease ratings were made.

Pythium aphanidermatum = test: Test A: bluegrass pythium blight, preventive spray on bluegrass seedlings
Rhizoctonia oryzae = test: Test G: turf brown patch, preventive spray on creeping bent grass seedlings
Experimental: (the causal agent of turf brown patch) and incubated in a saturated atmosphere at 27° C. for 24 h, and then moved to a growth chamber at 27° C. for 5 days, after which disease ratings were made.

[3] = system: Puccinia recondita f. sp. tritici; test: Test K: wheat leaf rust, preventive spray on wheat seedlings
Botrytis cinerea = test: Test E: tomato botrytis, preventive spray on tomato seedlings
[4] = 40 ppm (marked *), 100 = 100% disease control, 0 = no control
[5] = 200 ppm, 100 = 100% disease control, 0 = no control
[6] = 200 ppm, 100 = 100% disease control, 0 = no control relative to controls

CCC(C)Cn1c(-c2c(F)cccc2F)c(Cl)nc(-n2nc(C)cc2C(F)(F)F)c1=O (stereo not drawn) [compound 64]
Test J disease control rating (Septoria tritici; 200 ppm): 71%
Test F disease control rating (Phytophthora infestans; 200 ppm): 0%
Test L disease control rating ([1]; 200 ppm): 0%
Test B disease control rating ([2]; 200 ppm): 0%
Test I disease control rating (fusarium graminearium; 200 ppm): 0%
Test D disease control rating (Plasmopara viticola; 200 ppm): 16%
Test H disease control rating (Septoria nodorum; 200 ppm): 0%
Test A disease control rating (Pythium aphanidermatum; 200 ppm): 0%
Test G disease control rating (Rhizoctonia oryzae; 200 ppm): 24%
Test K disease control rating ([3]; 200 ppm): 97%
Test E disease control rating (Botrytis cinerea; 200 ppm): 54%

O=c1c(-n2cccn2)nc(Cl)c(-c2c(F)cc(F)cc2F)n1Cc1ccccc1C(F)(F)F [compound 348]
Test J disease control rating (Septoria tritici; [4]): 99* %
Test F disease control rating (Phytophthora infestans; [5]): 0%
Test L disease control rating [1, 4]: 44* %
Test B disease control rating [2, 4]: 0* %
Test I disease control rating (fusarium graminearium; [5]): 0%
Test D disease control rating (Plasmopara viticola; [5]): 0%
Test H disease control rating (Septoria nodorum; [4]): 64* %
Test A disease control rating (Pythium aphanidermatum; [5]): 0%
Test G disease control rating (Rhizoctonia oryzae; [4]): 16* %
Test K disease control rating [3, 4]: 97* %
Test E disease control rating (Botrytis cinerea; [4]): 90* %

CCC(C)Cn1c(-c2ccc(F)cc2Cl)c(Cl)nc(-n2cc(Cl)cn2)c1=O (stereo not drawn) [compound 166]
Test J disease control rating (Septoria tritici; 40 ppm (*)): 100* %
Test F disease control rating (Phytophthora infestans; 40 ppm (*)): 0* %
Test L disease control rating ([1]; 40 ppm (*)): 0* %
Test B disease control rating ([2]; 40 ppm (*)): 17* %
Test I disease control rating (fusarium graminearium; 40 ppm (*)): 0* %
Test D disease control rating (Plasmopara viticola; 40 ppm (*)): 0* %
Test H disease control rating (Septoria nodorum; 40 ppm (*)): 0* %
Test A disease control rating (Pythium aphanidermatum; 40 ppm (*)): 0* %
Test G disease control rating (Rhizoctonia oryzae; 40 ppm (*)): 26* %
Test K disease control rating ([3]; 40 ppm (*)): 86* %
Test E disease control rating (Botrytis cinerea; 40 ppm (*)): 100* %

CCn1c(-c2c(F)cccc2F)c(Cl)nc(-n2cccn2)c1=O [compound 184]
Test J disease control rating (Septoria tritici; 40 ppm (*)): 96* %
Test F disease control rating (Phytophthora infestans; 40 ppm (*)): 0* %
Test L disease control rating ([1]; 40 ppm (*)): 98* %
Test B disease control rating ([2]; 40 ppm (*)): 0* %
Test I disease control rating (fusarium graminearium; 40 ppm (*)): 0* %
Test D disease control rating (Plasmopara viticola; 40 ppm (*)): 67* %
Test H disease control rating (Septoria nodorum; 40 ppm (*)): 100* %
Test A disease control rating (Pythium aphanidermatum; 40 ppm (*)): 0* %
Test G disease control rating (Rhizoctonia oryzae; 40 ppm (*)): 88* %
Test K disease control rating ([3]; 40 ppm (*)): 98* %
Test E disease control rating (Botrytis cinerea; 40 ppm (*)): 100* %

CCC(C)Cn1c(-c2ccc(F)cc2F)c(C)nc(C(N)=O)c1=N (stereo not drawn) [compound 428]
Test J disease control rating (Septoria tritici; [6]): 87%
Test F disease control rating (Phytophthora infestans; [6]): 0%
Test L disease control rating [1, 6]: 0%
Test B disease control rating [2, 6]: 0%
Test I disease control rating (fusarium graminearium; [6]): 0%
Test D disease control rating (Plasmopara viticola; [6]): 0%
Test H disease control rating (Septoria nodorum; [6]): 0%
Test A disease control rating (Pythium aphanidermatum; [6]): 0%
Test G disease control rating (Rhizoctonia oryzae; [6]): 0%
Test K disease control rating [3, 6]: 95%
Test E disease control rating (Botrytis cinerea; [6]): 49%

O=c1c(-n2cccn2)nc(Cl)c(-c2c(F)cccc2F)n1C1CC1 [compound 361]
Test J disease control rating (Septoria tritici; [4]): 3* %
Test F disease control rating (Phytophthora infestans; [5]): 0%
Test L disease control rating [1, 4]: 0* %
Test B disease control rating [2, 4]: 0* %
Test I disease control rating (fusarium graminearium; [5]): 0%
Test D disease control rating (Plasmopara viticola; [5]): 0%
Test H disease control rating (Septoria nodorum; [4]): 98* %
Test A disease control rating (Pythium aphanidermatum; [5]): 0%
Test G disease control rating (Rhizoctonia oryzae; [4]): 31* %
Test K disease control rating [3, 4]: 83* %
Test E disease control rating (Botrytis cinerea; [4]): 92* %

CC(C)Cn1c(-c2ccc(Cl)o2)c(Cl)nc(-n2cccn2)c1=O [compound 151]
Test J disease control rating (Septoria tritici; 40 ppm (*)): 12* %
Test F disease control rating (Phytophthora infestans; 200 ppm): 33%
Test L disease control rating ([1]; 40 ppm (*)): 0* %
Test B disease control rating ([2]; 40 ppm (*)): 0* %
Test I disease control rating (fusarium graminearium; 200 ppm): 0%
Test D disease control rating (Plasmopara viticola; 200 ppm): 31%
Test H disease control rating (Septoria nodorum; 40 ppm (*)): 0* %
Test A disease control rating (Pythium aphanidermatum; 200 ppm): 0%
Test G disease control rating (Rhizoctonia oryzae; 40 ppm (*)): 0* %
Test K disease control rating ([3]; 40 ppm (*)): 19* %
Test E disease control rating (Botrytis cinerea; 40 ppm (*)): 98* %

Cc1ccn(-c2nc(Cl)c(C(C)C)n(-c3ccccc3)c2=O)n1 [compound 307]
Test J disease control rating (Septoria tritici; [5]): 20%
Test F disease control rating (Phytophthora infestans; [5]): 84%
Test L disease control rating [1, 5]: 0%
Test B disease control rating [2, 5]: 0%
Test I disease control rating (fusarium graminearium; [5]): 49%
Test D disease control rating (Plasmopara viticola; [5]): 0%
Test H disease control rating (Septoria nodorum; [5]): 0%
Test A disease control rating (Pythium aphanidermatum; [5]): 0%
Test G disease control rating (Rhizoctonia oryzae; [5]): 0%
Test K disease control rating [3, 5]: 51%
Test E disease control rating (Botrytis cinerea; [5]): 88%

CCC(C)Cn1c(-c2c(F)cccc2F)c(Cl)nc(C(=O)NCCO)c1=O (stereo not drawn) [compound 349]
Test J disease control rating (Septoria tritici; [4]): 25* %
Test F disease control rating (Phytophthora infestans; [5]): 0%
Test L disease control rating [1, 4]: 0* %
Test B disease control rating [2, 4]: 0* %
Test I disease control rating (fusarium graminearium; [5]): 0%
Test D disease control rating (Plasmopara viticola; [5]): 0%
Test H disease control rating (Septoria nodorum; [4]): 0* %
Test A disease control rating (Pythium aphanidermatum; [5]): 0%
Test G disease control rating (Rhizoctonia oryzae; [4]): 0* %
Test K disease control rating [3, 4]: 96* %
Test E disease control rating (Botrytis cinerea; [4]): 0* %

CC(C)Cn1c(-c2c(F)cccc2F)c(Cl)nc(-c2cnccn2)c1=O.Cl [compound 364]
Test J disease control rating (Septoria tritici; [4]): 0* %
Test F disease control rating (Phytophthora infestans; [5]): 0%
Test L disease control rating [1, 4]: 88* %
Test B disease control rating [2, 4]: 0* %
Test I disease control rating (fusarium graminearium; [5]): 82%
Test D disease control rating (Plasmopara viticola; [5]): 0%
Test H disease control rating (Septoria nodorum; [4]): 0* %
Test A disease control rating (Pythium aphanidermatum; [5]): 0%
Test G disease control rating (Rhizoctonia oryzae; [4]): 16* %
Test K disease control rating [3, 4]: 92* %
Test E disease control rating (Botrytis cinerea; [4]): 99* %

COC(=O)Cn1c(-c2c(F)cccc2F)c(Cl)nc(-n2ccc(C)n2)c1=O [compound 308]
Test J disease control rating (Septoria tritici; [4]): 29* %
Test F disease control rating (Phytophthora infestans; [4]): 0* %
Test L disease control rating [1, 4]: 0* %
Test B disease control rating [2, 4]: 0* %
Test I disease control rating (fusarium graminearium; [4]): 0* %
Test D disease control rating (Plasmopara viticola; [4]): 0* %
Test H disease control rating (Septoria nodorum; [4]): 0* %
Test A disease control rating (Pythium aphanidermatum; [4]): 0* %
Test G disease control rating (Rhizoctonia oryzae; [4]): 0* %
Test K disease control rating [3, 4]: 9* %
Test E disease control rating (Botrytis cinerea; [4]): 0* %

CCC(C)Cn1c(-c2c(F)cccc2F)c(Cl)nc(C(N)=O)c1=O (stereo not drawn) [Compound 298, 6-Chloro-5-(2,6-difluorophenyl)-3,4-dihydro-4-(2-methylbutyl)-3-oxopyrazinecarboxamide]
pest or weed control at 200 ppm (Septoria tritici; Zymoseptoria tritici, 528 h, 200 ppm, 100 = 100% disease control, 0 = no control, read-out: Test J disease control rating): 100%
pest or weed control at 200 ppm (Phytophthora infestans; Phytophthora infestans, in Solanum lycopersicum, topical, 144 h, read-out: Test F disease control rating): 100%
pest or weed control at 200 ppm ([1]; Blumeria graminis, in Triticum aestivum, 168 h, read-out: Test L disease control rating, 200 ppm, 100 = 100% disease control, 0 = no control): 89%
pest or weed control at 200 ppm ([2]; Colletotrichum orbiculare, in Cucumis sativus, 144 h, read-out: Test B disease control rating, 200 ppm, 100 = 100% disease control, 0 = no control): 66%
pest or weed control at 200 ppm (fusarium graminearium; Fusarium, in Triticum aestivum, topical, 192 h, read-out: Test I disease control rating, 200 ppm, 100 = 100% disease control, 0 = no control): 96%
pest or weed control at 200 ppm (Plasmopara viticola; Plasmopara viticola, 168 h, 200 ppm, 100 = 100% disease control, 0 = no control, read-out: Test D disease control rating): 85%
pest or weed control at 200 ppm (Septoria nodorum; Parastagonospora nodorum, in Triticum aestivum, topical, 168 h, read-out: Test H disease control rating, 200 ppm, 100 = 100% disease control, 0 = no control): 99%
pest or weed control at 200 ppm (Pythium aphanidermatum; Pythium aphanidermatum, 120 h, read-out: Test A disease control rating): 88%
pest or weed control at 200 ppm (Rhizoctonia oryzae; Waitea circinata, in Agrostis stolonifera, topical, 144 h, read-out: Test G disease control rating, 200 ppm, 100 = 100% disease control, 0 = no control): 78%
pest or weed control at 200 ppm ([3]; Puccinia recondita, in Triticum aestivum, 192 h, read-out: Test K disease control rating): 100%
pest or weed control at 200 ppm (Botrytis cinerea; Botrytis cinerea, in Solanum lycopersicum, topical, 72 h, read-out: Test E disease control rating): 99%

From patent US20080194585A1, “Fungicidal Pyrazine Derivatives” (priority 2005, published 2008)
